Assay results taken from patent US20180044685A1, “APPLICATION OF SYK SERVING AS THERAPEUTIC TARGET FOR HEPATIC FIBROSIS/HEPATIC CIRRHOSIS” (priority 2015, published 2018).

Legend:
[1] = test system: chronic lymphocytic leukemia; conditions: phase II clinical trials of chronic lymphocytic leukemia; cited from earlier work
[2] = test system: mouse hepatic fibrosis model induced by CCl4; test: Mouse hepatic fibrosis model induced by carbon tetrachloride (CCl4); format: in vivo; conditions: gavage 5 mg/kg once a day, 6 weeks
Method: Mouse hepatic fibrosis model: male C577BL/6 mice (8-week old) were used with 8 in each group and were injected intra-abdominally with 0.2 ml (diluted by olive oil) of 10% CCl4 twice a week; and a control group was injected intra-abdominally with an equal volume of olive oil for 18 consecutive weeks.

In the case of `c1cn2cc(-c3ccc4cn[nH]c4c3)nc(Nc3ccc(N4CCOCC4)cc3)c2n1` [GS-9973, Entospletinib], the effective rate [1] is given as 91% and the “generation of hepatic collagen (Sirius Red staining)” value [2] is given as “remarkably inhibit”.
